Laboratory results from US6613761B1, “Benzoxazepine compounds, their production and use” (Takeda Chemical Industries, Ltd., priority 1995, dated 2003).
Where a name gives a salt, the structure may show the parent alone.

How the values were obtained:
squalene synthetase = target: T1, squalene synthetase (Homo sapiens, UniProt P37268); assay: Squalene synthetase inhibitory activity (human-derived enzyme prepared from HepG2 cells); assay type: biochemical; conditions: [1-3H] farnesyl pyrophosphate, 37° C., 45 minutes, read-out: Inhibitory Activity (IC50, 10^−9 M)
T1 construct: This suspension was used as the enzyme solution; endogenous in cells; host or cells: HepG2 human hepatic carcinoma cells; membrane fraction (105000×g sediment) of the sonicate
T1 sequence (P37268 1-417): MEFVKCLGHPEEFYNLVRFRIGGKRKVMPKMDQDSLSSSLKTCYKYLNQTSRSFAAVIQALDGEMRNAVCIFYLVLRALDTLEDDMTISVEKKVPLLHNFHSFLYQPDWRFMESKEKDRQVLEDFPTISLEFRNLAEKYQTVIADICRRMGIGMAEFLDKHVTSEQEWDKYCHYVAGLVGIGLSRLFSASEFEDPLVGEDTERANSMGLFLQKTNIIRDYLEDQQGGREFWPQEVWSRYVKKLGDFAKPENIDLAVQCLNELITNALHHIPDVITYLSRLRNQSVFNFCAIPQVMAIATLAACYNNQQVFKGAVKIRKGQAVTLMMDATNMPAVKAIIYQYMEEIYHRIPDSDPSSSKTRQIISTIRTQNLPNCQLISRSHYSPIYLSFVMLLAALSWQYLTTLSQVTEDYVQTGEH
Protocol: The squalene synthetase inhibitory activity was assayed as follows with the enzyme solutions prepared in accordance with the method described below.
More specifically, an enzyme solution (protein content 0.8 μg) prepared in accordance with the method described below was added to a solution (total volume 50 μl)) containing 5 μM [1-^3H] farnesyl pyrophosphate (specific activity 25 μCi/mole), 1 mM NADPH (nicotinamide adenine dinucleotide phosphate of reduced type), 5 mM MgCl2, 6 mM glutathione, a 100 mM buffer solution of potassium phosphate (pH 7.4) and a test drug (used as an aqueous solution or a DMSO solution), then the reaction was allowed to proceed at 37° C. for 45 minutes. To the reaction mixture was added 150 μl of a mixture of chloroform and methanol (1:2) to suspend the reaction, followed by adding 50 Al of chloroform and 50 μl of a 3N solution of sodium hydroxide. 50 μl of the chloroform layer (lower layer) containing the reaction mixture having squalene as the principal component and 3 ml of toluene-based liquid scintillator were mixed, and its radioactivity was determined by means of a liquid scintillation counter.
The squalene synthetase inhibitory activity was expressed in terms of the concentration inhibiting by 50% the radioactivity taken into the chloroform layer (IC50, molar concentration (M)), as shown in Table 7. Preparation of human-derived enzyme
Human hepatic carcinoma cells HepG2 (about 1×10^9 cells) obtained by incubation on a Dulbecco-modified Eagle's medium (37° C. in the presence of 5% CO2) containing 10% fetal bovine serum were suspended in 10 ml of an ice-cooled buffer solution (100 mM potassium phosphate buffer (pH 7.4), 30 mM nicotinamide and 2.5 mM MgCl2]. The cells were crashed by means of ultrasonication (for 30 seconds, twice). The sonicate thus obtained was subjected to centrifugation for 20 minutes (4° C.) with 10000×g. The supernatant layer was subjected to further centrifugation for 90 minutes (4° C.) with 105000×g. The sediment was then suspended in an ice-cooled 100 mM potassium phosphate buffer (pH 7.4), which was again subjected to centrifugation for 90 minutes (4° C.) with 105000×g. This fraction was suspended in an ice-cooled 100 mM potassium phosphate buffer solution (pH 7.4) (about 4 mg/ml protein concentration). This suspension was used as the enzyme solution.

CCOP(=O)(CNC(=O)C[C@H]1O[C@H](c2cccc(OC)c2OC)c2cc(Cl)ccc2N(CC(C)(C)CO)C1=O)OCC
melting point: 138 to 140 °C

COc1cccc([C@H]2O[C@H](CC(=O)N3CCC(=CC(=O)O)CC3)C(=O)N(CC(C)(C)C)c3ccc(Cl)cc32)c1OC [Compound 4-18]
IC50 (squalene synthetase): 18 nM
melting point: 228 to 230 °C

COc1cccc([C@H]2O[C@H](CC(=O)N3CCC(CP(=O)(O)O)CC3)C(=O)N(CC(C)(C)C)c3ccc(Cl)cc32)c1OC [Compound 23, N-[(3R,5S)-7-chloro-5-(2,3-dimethoxyphenyl)-1-neopentyl-2-oxo-1,2,3,5-tetrahydro-4,1-benzoxazepine-3-acetyl]-4-phosphonomethylpiperidine]
IC50 (squalene synthetase): 12 nM
melting point: 174 to 175 °C

COc1cccc([C@H]2O[C@H](CC(=O)NCCC(=O)O)C(=O)N(CC(C)(C)C)c3ccc(Cl)cc32)c1OC [Compound 4-21]
IC50 (squalene synthetase): 11 nM
melting point: 165 to 167 °C

COc1cccc([C@H]2O[C@H](CC(=O)NS(C)(=O)=O)C(=O)N(CC(C)(C)COC(C)=O)c3ccc(Cl)cc32)c1OC [Compound 41, (3R,5S)-N-Methylsulfonyl-1-(3-acetoxy-2,2-dimethylpropyl)-7-chloro-5-(2,3-dimethoxyphenyl)-2-oxo-1,2,3,5-tetrahydro-4,1-benzoxazepine-3-acetamide]
melting point: 108 to 112 °C

COc1cccc([C@H]2O[C@H](Cc3nc(=O)o[nH]3)C(=O)N(CC(C)(C)C)c3ccc(Cl)cc32)c1OC [Compound 8, (3R,5S)-7-Chloro-5-(2,3-dimethoxyphenyl)-1-neopentyl-3-(2,5-dihydro-5-oxo-1,2,4-oxadiazol-3-yl) methyl-1,2,3,5-tetrahydro-4,1-benzoxazepin-2-one]
IC50 (squalene synthetase): 12 nM
melting point: 130 to 133 °C

COc1cccc([C@H]2O[C@H](CC(=O)NCP(=O)(O)O)C(=O)N(CC(C)(C)C)c3ccc(Cl)cc32)c1OC [Compound 22, (3R,5S)-N-phosphonomethyl-7-chloro-5-(2,3-dimethoxyphenyl)-1-neopentyl-2-oxo-1,2,3,5-tetrahydro-4,1-benzoxazepine-3-acetamide]
IC50 (squalene synthetase): 8.5 nM
melting point: 152 to 155 °C

COc1cccc([C@H]2O[C@H](CC(=O)NS(=O)(=O)c3ccccc3)C(=O)N(CC(C)(C)C)c3ccc(Cl)cc32)c1OC [Compound 17-2]
IC50 (squalene synthetase): 9.3 nM
melting point: 158 to 161 °C

COc1cccc([C@H]2O[C@H](CC(=O)N(C)CC(=O)O)C(=O)N(CC(C)(C)C)c3ccc(Cl)cc32)c1OC [Compound 4-12]
IC50 (squalene synthetase): 11 nM
melting point: 134 to 136 °C

COc1cccc([C@H]2O[C@H](CC(=O)NS(=O)(=O)C(C)C)C(=O)N(CC(C)(C)C)c3ccc(Cl)cc32)c1OC [Compound 17-3]
IC50 (squalene synthetase): 11 nM
melting point: 149 to 150 °C

CCS(=O)(=O)NC(=O)C[C@H]1O[C@H](c2cccc(OC)c2OC)c2cc(Cl)ccc2N(CC(C)(C)C)C1=O [Compound 17-4]
IC50 (squalene synthetase): 9.3 nM
melting point: 135 to 140 °C

COc1cccc([C@H]2O[C@H](CC(=O)N[C@H](C(=O)O)C(C)C)C(=O)N(CC(C)(C)C)c3ccc(Cl)cc32)c1OC [Compound 4-29]
IC50 (squalene synthetase): 15 nM
melting point: 129 to 132 °C

COc1cccc([C@H]2O[C@H](CC(=O)N[C@@H](Cc3ccccc3)C(=O)O)C(=O)N(CC(C)(C)C)c3ccc(Cl)cc32)c1OC [Compound 4-15]
IC50 (squalene synthetase): 19 nM
melting point: 134 to 136 °C

COc1cccc([C@H]2O[C@H](CC(=O)N3CCC(O)(CC(=O)O)CC3)C(=O)N(CC(C)(C)C)c3ccc(Cl)cc32)c1OC [Compound 4-20]
IC50 (squalene synthetase): 17 nM
melting point: 163 to 166 °C

COc1cccc([C@H]2O[C@H](CC(=O)N[C@@H](CC(C)C)C(=O)O)C(=O)N(CC(C)(C)C)c3ccc(Cl)cc32)c1OC [Compound 4-30]
IC50 (squalene synthetase): 12 nM
melting point: 87 to 92 °C

COc1cccc([C@H]2O[C@H](CC(=O)N3CCC(C(=O)NS(C)(=O)=O)CC3)C(=O)N(CC(C)(C)C)c3ccc(Cl)cc32)c1OC [Compound 18]
IC50 (squalene synthetase): 15 nM
melting point: 187 to 189 °C

COc1cccc([C@H]2O[C@H](CC(=O)N3CCC(CCc4nnn[nH]4)CC3)C(=O)N(CC(C)(C)C)c3ccc(Cl)cc32)c1OC [Compound 25, 5-[2-[N-[(3R,5S)-7-chloro-5-(2,3-dimethoxyphenyl)-1-neopentyl-2-oxo-1,2,3,5-tetrahydro-4,1-benzoxazepine-3-acetyl]piperidin-4-yl]ethyl]1H(or 3H)-tetrazole]
IC50 (squalene synthetase): 29 nM
melting point: 155 to 158 °C

COc1cccc([C@H]2O[C@H](CC(=O)NS(=O)(=O)c3ccccc3C)C(=O)N(CC(C)(C)C)c3ccc(Cl)cc32)c1OC [Compound 17-1]
IC50 (squalene synthetase): 13 nM

COc1cccc([C@H]2O[C@H](Cc3nnn[nH]3)C(=O)N(CC(C)(C)C)c3ccc(Cl)cc32)c1OC [Compound 7, (3R,5S)-7-Chloro-5-(2,3-dimethoxyphenyl)-1-neopentyl-1,2,3,5-tetrahydro-3-[1H(or 3H)-tetrazol-5-yl]methyl-4,1-benzoxazepin-2-one]
IC50 (squalene synthetase): 11 nM
melting point: 148 to 150 °C

COc1cccc([C@H]2O[C@H](Cc3nnn[nH]3)C(=O)N(CC(C)(C)CO)c3ccc(Cl)cc32)c1OC [Compound 11, (3R, 5S)-7-Chloro-5-(2,3-dimethoxyphenyl)-1-(3-hydroxy-2,2-dimethylpropyl)-1,2,3,5-tetrahydro-3-[1H (or 3H)-tetrazol-5-yl]methyl-4,1-benzoxazepin-2-one]
melting point: 158 to 160 °C

COc1cccc([C@H]2O[C@H](CC(=O)N[C@@H](CCC(=O)O)C(=O)O)C(=O)N(CC(C)(C)C)c3ccc(Cl)cc32)c1OC [Compound 4-9]
IC50 (squalene synthetase): 11 nM
melting point: 152 to 155 °C

COc1cccc([C@H]2O[C@H](CC(=O)NS(C)(=O)=O)C(=O)N(CC(C)(C)CO)c3ccc(Cl)cc32)c1OC [Compound 19, (3R,5S)-N-methylsulfonyl-7-chloro-5-(2,3-dimethoxyphenyl)-1-(3-hydroxy-2,2-dimethylpropyl)-2-oxo-1,2,3,5-tetrahydro-4,1-benzoxazepine-3-acetamide]
IC50 (squalene synthetase): 32 nM
melting point: 221 to 223 °C

COc1cccc([C@H]2O[C@H](Cc3nnn[nH]3)C(=O)N(CC(C)(C)C)c3ccc(Cl)cc32)c1OC [Compound 9, (3R, 5S)-7-Chloro-5-(2,3-dimethoxyphenyl)-1-neopentyl-1,2,3,5-tetrahydro-3-(tetrazol-5-yl)methyl-4,1-benzoxazepin-2-one sodium salt]
IC50 (squalene synthetase): 9.5 nM

COc1cccc([C@H]2O[C@H](CC(=O)N3CCC(C(=O)O)CC3)C(=O)N(CC(C)(C)CO)c3ccc(Cl)cc32)c1OC [Compound 13-2]
IC50 (squalene synthetase): 18 nM

COc1cccc([C@H]2O[C@H](CC(=O)NS(C)(=O)=O)C(=O)N(CC(C)(CO)CO)c3ccc(Cl)cc32)c1OC [Compound 20, (3R,5S)-N-methylsulfonyl-7-chloro-5-(2,3-dimethoxyphenyl)-1-(3-hydroxy-2-hydroxymethyl-2-methylpropyl)-2-oxo-1,2,3,5-tetrahydro-4,1-benzoxazepine-3-acetamide]
IC50 (squalene synthetase): 48 nM

CCC(C)[C@H](NC(=O)C[C@H]1O[C@H](c2cccc(OC)c2OC)c2cc(Cl)ccc2N(CC(C)(C)C)C1=O)C(=O)O (stereo partly drawn) [Compound 4-8]
IC50 (squalene synthetase): 11 nM
melting point: 137 to 139 °C

COc1cccc([C@H]2O[C@H](CC(=O)N3CCN(CC(=O)O)C(=O)C3)C(=O)N(CC(C)(C)C)c3ccc(Cl)cc32)c1OC [Compound 4-31]
IC50 (squalene synthetase): 20 nM
melting point: 162 to 164 °C

COc1cccc([C@H]2O[C@H](CC(=O)NCP(=O)(O)O)C(=O)N(CC(C)(C)CO)c3ccc(Cl)cc32)c1OC [Compound 27, (3R,5S)-N-phosphonomethyl-7-chloro-5-(2,3-dimethoxyphenyl)-1-(3-hydroxy-2,2-dimethylpropyl)-2-oxo-1,2,3,5-tetrahydro-4,1-benzoxazepine-3-acetamide]
IC50 (squalene synthetase): 20 nM
